The structures appear in SMILES notation. Entries after “also recorded” stand apart in the source; their conditions may differ.

Test [1] concerns VSMCs. Put plainly: qRT-PCR of H19, TMEM119, RARRES1 and CCL2 mRNA in cultured VSMCs. Type of test: cell-based, human. To be noted: vs control. As for the experimental part:
(§1) VSMCs were thawed and cultured in medium 231 (M231; Life Technologies) with smooth muscle growth supplement (5% FBS; 2 ng/mL human basic fibroblast growth factor, 0.5 ng/mL human epidermal growth factor, 5 ng/mL heparin, 0.2 μg/mL insulin and 5 μg/mL BSA; Life Technologies) with 100 U/mL penicillin, 100 μg/mL streptomycin, 0.25 μg/mL fungizone. Confluent VSMCs were washed twice with 1×PBS to remove residual serum, passaged in 96-well or 6-well plates and incubated in parallel in M231 with 1% charcoal striped FBS with 0.1% ethanol (vehicle, control) or 10^−7 M MPA (Sigma-Aldrich) or 10^−7 M ETO (Organon) or 10^−7 M P4 (Sigma-Aldrich) for 15 min, 6, 48, and 72 h. VSMCs were then washed with ice-cold PBS and stored at −80° C. for further RNA and protein analyses.
For qRT-PCR, 500 ng total RNA from each treatment was reverse transcribed by using RETROscript kit (Ambion). qRT-PCR was performed using the TaqMan Gene Expression Assay Kits for H19, TMEM119, RARRES1, and CCL2 (TaqMan ID # Hs00262142_g1, Hs01938722_m1, Hs00161204_m1 and Hs00234140_m1, respectively; Life Technologies) as described previously (36). Expression of the target mRNAs was normalized to β-actin levels, and the 2^−ΔΔCT was used to calculate relative expression levels.
(Quantitative PCR measures a nucleic acid by following its amplification.)

In test [2] the test system is STAT1. Put plainly: Western blot of total and phosphorylated STAT1 in VSMCs. Type of test: cell-based, human. The settings on record: VSMCs treated for 15 min, vs control. As to the method:
as §1
To confirm inhibition of STAT1 signaling in LAPC-treated VSMCs, detected by IPA, cell lysates from VSMCs were run in 10% Tris-HCl gel (Bio-Rad). Transfer onto membrane, blocking, washing, chemiluminescence development, and stripping/reprobing were performed as described previously (35). The membrane was incubated with antitotal STAT1 or antiphospho-STAT1 rabbit monoclonal antibodies (Cell Signaling) and then with peroxidase-conjugated goat anti-rabbit IgG (Vector Labs). Signals were developed by a chemiluminescence kit (GE Healthcare).
For orientation: A western blot detects proteins with antibodies after separation by electrophoresis.

Test [3] relates to endometrial VSMCs. Put plainly: αSMA and PCNA double-immunostaining of endometrium of oophorectomized guinea pigs (OVX-GPs). The class given is in vivo, guinea pig. To be noted: 21-d time-release pellets, mean±SEM. The text has this:
After receiving written informed consent at New York University under Institutional Review Board approval, paraffin sections were derived from banked paired endometrial tissues obtained before and after Depo therapy by […] biopsy from each reproductive age woman with regular menstrual cycles during the secretory phase (n=6). Based on an established animal model for LAPC-induced AUB in humans (9), nulliparous adult female pigmented GPs (weighing 525-775 g) were used in experimental procedures conforming to National Health and Medical Research Council Guidelines of Australia and approved by the Animal Ethics Committee of The University of Western Australia. GPs (n=24) were subjected to bilateral OVX and given subcutaneous 21-d time-release pellets (Innovative Research of America) containing MPA (50 mg/d; n=6) or 17β-Estradiol (E2) (0.1 mg/d; n=6), both MPA and E2 (n=6), or no pellets (n=6). On day 20 of exposure to the pellets, GPs were killed with pentobarbital and uterine tissues fixed in 10% formalin and processed for paraffin embedding. In vitro experiments used aortic VSMCs from premenopausal women (n=2) (Life Technologies). Paraffin sections (5 μm) from paired pre- vs. post-Depo treated human or GP endometria were deparaffinized, boiled in citrate buffer (pH: 6.0) and then incubated in methanol containing 3% H2O2. Following 10% normal horse serum blocking (Vector Labs), slides were incubated overnight at 4° C. with mouse anti-PCNA monoclonal antibody (EMD Millipore). After several rinses in Tris-buffered saline containing 0.1% tween-20 (TBS-T; pH 7.6) slides were then incubated with biotinylated anti-mouse IgG (Vector Labs) for 30 min, then with a streptavidin-peroxidase complex (Elite ABC kit; Vector Labs) for 30 min and with diaminobenzidine (DAB; Vector Labs) for 3 min. […] Slides were counterstained by Hematoxylin and evaluated by histological scoring (HSCORE), as described previously (34). (See details for HSCORE evaluation for αSMA immunoreactivity and PCNA quantitation in SI Materials and Methods). Staining intensity for α-SMA was semiquantitatively evaluated by Q:1 HSCORE (1). […] An HSCORE value was determined for each specimen by using the formula HSCORE=ΣPi (i+1), where Pi is the percentage of stained cells in each intensity category (i.e., i=1, 2, or 3). Quantitation of PCNA immunostaining was determined by counting the number of PCNA^+ (brown) and PCNA^- cell nuclei (blue) in VSMCs (αSMA immunostained cells) and obtaining the ratio of numbers of PCNA^+ cell nuclei to total αSMA^+ cells. For each slide, three different fields were evaluated microscopically at 200× magnification. Slides were evaluated at different times by two investigators blinded to tissue source, and the average HSCORE or percentage of cells with PCNA^+ nuclei to total αSMA^+ cells used.

As to `C#C[C@]1(O)CC[C@H]2[C@@H]3CCC4=CC(=O)CC[C@@H]4[C@H]3C(=C)C[C@@]21CC` [ETO, etonogestrel], in test [1], the “CCL2 mRNA levels” value is “down-regulated; also recorded: significant inhibition”, the “H19 mRNA” value is given as “up-regulated”, the “RARRES1 mRNA” value is on record as “down-regulated” and the “TMEM119 mRNA” value is “up-regulated”. In test [2], the “phosphorylated levels of STAT1” value is reported as “partially reduced” and the “total STAT1 levels” value is “not”.
As to `CC(=O)O[C@]1(C(C)=O)CC[C@H]2[C@@H]3C[C@H](C)C4=CC(=O)CC[C@]4(C)[C@H]3CC[C@@]21C` [MPA, medroxyprogesterone acetate], in test [1], the “CCL2 mRNA levels” value is “significant inhibition”, the “H19 mRNA” value is on record as “up-regulated”, the “RARRES1 mRNA” value was “down-regulated” and the “TMEM119 mRNA” value is “up-regulated”. Also, the “CCL2 mRNA levels” value in test [1] (listed as WA) was “down-regulated”. Also, in test [2], the “phosphorylated levels of STAT1” value is recorded as “partially reduced” and the “total STAT1 levels” value was “not”. For the same compound, the “PCNA+ endometrial VSMCs” value in test [3] (n=6, control 11.2%±2.3) is given as 10.2%±2.8. The “αSMA HSCORE” value in test [3] (n=6, control 135.2±26.0) turned out to be 83.50±9.0.

Values taken from patent US20180078615A1, “USE OF CCL2 TO INHIBIT ABNORMAL UTERINE BLEEDING” (UNIVERSITY OF SOUTH FLORIDA, priority 2015, published 2018).
